According to BindingDB's records for doi:10.1016/S0960-894X(01)80994-X (1993):
Where a SMILES comes first, the peptide text is derived from it. The star is where a group is joined. Cbz = O=C(OCc1ccccc1)*

Assay: Inhibition of putative Endothelin-converting enzyme partially purified from rabbit lung membranes

| Structure (SMILES) | IC50 [µM] |
| --- | --- |
| COC(=O)[C@H](Cc1c[nH]c2ccccc12)NC(=O)[C@H](CC(C)C)NC(=O)[C@H](CS)NC(=O)OCc1ccccc1 [2-[(S)-2-((R)-2-Benzyloxycarbonylamino-3-mercapto-propionylamino)-4-methyl-pentanoylamino]-3-(1H-indol-3-yl)-propionic acid (S)-methyl ester] (Cbz-Cys-Leu-Trp-OMe) | 31 |
| COC(=O)[C@H](Cc1c[nH]c2ccccc12)NC(=O)[C@H](CS)NC(=O)OCc1ccccc1 [(S)-2-[2-((R)-Benzyloxycarbonylamino)-3-mercapto-propionylamino]-3-(1H-indol-3-yl)-propionic acid methyl ester] (Cbz-Cys-Trp-OMe) | 47 |

Molecules with a lower IC50, results first:

| IC50 [µM] | Structure (SMILES) |
| --- | --- |
| 30 | O=C(N[C@@H](CS)C(=O)N[C@@H](Cc1c[nH]c2ccccc12)C(=O)O)OCc1ccccc1 [(S)-2-((R)-2-Benzyloxycarbonylamino-3-mercapto-propionylamino)-3-(1H-indol-3-yl)-propionic acid] (Cbz-Cys-Trp-OH) |
| 24 | CC(C)CC(C(=O)NO)C(=O)N[C@@H](Cc1c[nH]c2ccccc12)C(=O)O (stereo partly drawn) [(S)-2-(2-Hydroxycarbamoyl-4-methyl-pentanoylamino)-3-(1H-indol-3-yl)-propionic acid] |
| 4 | COC(=O)[C@H](CC(C)C)NC(=O)[C@@H](CS)NC(=O)OCc1ccccc1 [(S)-2-((S)-2-Benzyloxycarbonylamino-3-mercapto-propionylamino)-4-methyl-pentanoic acid methyl ester] |
